Test results from ChEMBL document CHEMBL1153483, “Synthesis and evaluation of novel substituted 5-hydroxycoumarin and pyranocoumarin derivatives exhibiting significant antiproliferative activity against breast cancer cell lines” (Bioorg Med Chem Lett, 2009).

Assays:
MDA-MB-231 = experiment: Antiproliferative activity against human MDA-MB-231 cells after 48 hrs by MTT assay; format: functional, cell-based
MCF7 = experiment: Antiproliferative activity against human MCF7 cells after 48 hrs by MTT assay; format: functional, cell-based
[1] = Homo sapiens, MCF7, 48 h, read-out: IC50
[2] = Homo sapiens, MDA-MB-231, 48 h, read-out: IC50

Row | SMILES | IC50 (MDA-MB-231; mda-mb-231) | IC50 (MCF7; [1]) [µM] | IC50 (MCF7; mcf7) | IC50 (MDA-MB-231; [2]) [µM] | Activity (MDA-MB-231) | Activity (MCF7)
1 | CC1(C)C=Cc2c(-c3cc4ccccc4s3)cc3oc(=O)cc(-c4ccccc4)c3c2O1 | Not Active | 77.7 | – | – | – | –
2 | CCCc1cc(=O)oc2cc(-c3cccc4c3Sc3ccccc3S4)c3c(c12)OC(C)(C)C=C3 | Not Active | > 100 | – | – | – | –
3 | Cc1cc(=O)oc2cc(-c3ccc(NC(=O)CCC(=O)O)cc3)c3c(c12)OC(C)(C)C=C3 | Not Active | – | Not Active | – | – | –
4 | CCCc1cc(=O)oc2cc(I)cc(O)c12 | Not Active | 26.8 | – | – | – | –
5 | CCCc1cc(=O)oc2cc(-c3cc4ccccc4s3)c3c(c12)OC(C)(C)C=C3 | Not Active | 22.8 | – | – | – | –
6 | CCCc1cc(=O)oc2cc(-c3cc4ccccc4s3)cc(O)c12 | – | 22.3 | – | 50 | – | –
7 | Cc1cc(=O)oc2cc(-c3cc4ccccc4s3)c3c(c12)OC(C)(C)C=C3 | – | 25.4 | – | > 100 | – | –
8 | CCCc1cc(=O)oc2cc(-c3cccc4c3Sc3ccccc3S4)cc(O)c12 | – | 14.4 | – | 7.9 | Dose-dependent effect | Dose-dependent effect
9 | O=c1cc(-c2ccccc2)c2c(O)cc(-c3cccc4c3Sc3ccccc3S4)cc2o1 | – | 14.2 | – | 9.3 | Dose-dependent effect | Dose-dependent effect
10 | O=c1cc(-c2ccccc2)c2c(O)cc(I)cc2o1 | Not Active | 25 | – | – | – | –
11 | CCCc1cc(=O)oc2cc(-c3ccc(NC(=O)CCC(=O)O)cc3)c3c(c12)OC(C)(C)C=C3 | Not Active | – | Not Active | – | – | –
12 | Cc1cc(=O)oc2cc(I)c3c(c12)OC(C)(C)C=C3 | Not Active | 30.7 | – | – | – | –
13 | CC1(C)C=Cc2c(I)cc3oc(=O)cc(-c4ccccc4)c3c2O1 | Not Active | 54.3 | – | – | – | –
14 | CC1(C)C=Cc2c(-c3ccc(NC(=O)CCC(=O)O)cc3)cc3oc(=O)cc(-c4ccccc4)c3c2O1 | Not Active | – | Not Active | – | – | –
15 | Cc1cc(=O)oc2cc(I)cc(O)c12 | Not Active | 18.3 | – | – | – | –

Further compounds by falling IC50 (MCF7; [1]), results first:

Row | IC50 (MDA-MB-231; mda-mb-231) | IC50 (MCF7; [1]) [µM] | IC50 (MCF7; mcf7) | IC50 (MDA-MB-231; [2]) [µM] | SMILES | Activity (MDA-MB-231) | Activity (MCF7)
16 | Not Active | 13.7 | – | – | CCCc1cc(=O)oc2cc(I)c3c(c12)OC(C)(C)C=C3 | – | –
17 | – | 7.6 | – | 10.6 | O=c1cc(-c2ccccc2)c2c(O)cc(-c3cc4ccccc4s3)cc2o1 | Dose-dependent effect | Dose-dependent effect
18 | – | 7.2 | – | 33.6 | CC1(C)C=Cc2c(-c3cccc4c3Sc3ccccc3S4)cc3oc(=O)cc(-c4ccccc4)c3c2O1 | Dose-dependent effect | Dose-dependent effect
19 | – | 6.5 | – | 61.2 | Cc1cc(=O)oc2cc(-c3ccc(NS(C)(=O)=O)cc3)c3c(c12)OC(C)(C)C=C3 | Dose-dependent effect | Dose-dependent effect
20 | – | 5.3 | – | 28.9 | CC1(C)C=Cc2c(-c3ccc(NS(C)(=O)=O)cc3)cc3oc(=O)cc(-c4ccccc4)c3c2O1 | Dose-dependent effect | Dose-dependent effect
21 | – | 3.3 | – | 27.2 | CCCc1cc(=O)oc2cc(-c3ccc(NS(C)(=O)=O)cc3)c3c(c12)OC(C)(C)C=C3 | Dose-dependent effect | Dose-dependent effect
